In patent US9540702B2, “Stabilization of enzymes with stable coenzymes” (Roche Diabetes Care, Inc., priority 2009, dated 2017):

Key:
[1] = target: T1, diaphorase (from porcine heart) (Sus scrofa, UniProt P09623); test: Diaphorase activity in liquid reagent for lactate dehydrogenase stored at 25° C.; format: biochemical; conditions: liquid reagent stored at 25° C.; 2 mM carbaNAD or 0.2 mM NAD; various storage times
T1 construct: 3 U/ml diaphorase (from porcine heart); from tissue; host or cells: porcine heart
T1 sequence (P09623 36-509): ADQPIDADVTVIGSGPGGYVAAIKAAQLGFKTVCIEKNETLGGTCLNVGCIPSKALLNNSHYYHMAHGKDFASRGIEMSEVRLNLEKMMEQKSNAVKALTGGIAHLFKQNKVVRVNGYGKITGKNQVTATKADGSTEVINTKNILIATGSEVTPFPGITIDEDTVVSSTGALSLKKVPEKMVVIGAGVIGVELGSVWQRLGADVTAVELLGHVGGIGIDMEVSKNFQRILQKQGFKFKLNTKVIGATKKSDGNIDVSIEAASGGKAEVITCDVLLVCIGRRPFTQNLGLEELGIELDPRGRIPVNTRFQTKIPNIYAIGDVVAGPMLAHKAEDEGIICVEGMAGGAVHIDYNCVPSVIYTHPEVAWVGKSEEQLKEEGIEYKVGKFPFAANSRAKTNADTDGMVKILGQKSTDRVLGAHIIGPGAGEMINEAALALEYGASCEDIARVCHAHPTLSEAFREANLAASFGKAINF
Procedure: A liquid reagent which, among others, contained diaphorase, carbaNAD, a tetrazolium salt and lactate was used to determine the activity of lactate dehydrogenase. The detection reagent which was stored in solution at 25° C. contained the following ingredients:
3 U/ml diaphorase (from porcine heart)
2 mM carbaNAD or 0.2 mM NAD
2 mM tetrazolium salt WST-3
0.1 M tricine/HCl, pH 8.8

[2] = target: glucose dehydrogenase (wild-type) (Bacillus subtilis, UniProt P12310); test: DSC of coenzyme binding; conditions: 3.8 mM ligand; 0.1 M Tris buffer, pH 8.5
Sequence of glucose dehydrogenase (wild-type) (P12310 whole entry): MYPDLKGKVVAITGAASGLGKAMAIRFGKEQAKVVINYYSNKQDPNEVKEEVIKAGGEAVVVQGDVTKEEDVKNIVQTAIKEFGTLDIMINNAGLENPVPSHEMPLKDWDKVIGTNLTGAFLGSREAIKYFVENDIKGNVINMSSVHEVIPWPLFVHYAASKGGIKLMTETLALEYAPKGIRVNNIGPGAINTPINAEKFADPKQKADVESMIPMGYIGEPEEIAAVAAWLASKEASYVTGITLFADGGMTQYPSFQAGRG

diaphorase [3] = test: Diaphorase activity extracted from triglyceride test strips after storage; format: biochemical; conditions: triglyceride test strips stored at 32° C. and 30-70% relative air humidity
Procedure: A composition which, among others, contained glycerol dehydrogenase, carbaNAD, diaphorase and a tetrazolium salt was used to determine triglycerides. Test strips were obtained by applying the formulation mentioned in Table 4 to a polycarbonate foil by means of a doctor blade (layer height 80 μm) and subsequent drying, and they were stored at 32° C. and 30-70% relative air humidity.

[4] = target: glucose dehydrogenase (GlucDH, wild-type) (Bacillus subtilis, UniProt P12310); test: Residual activity of GlucDH stored dry on Pokalon foils with coenzyme at 32° C., 85% relative air humidity; format: biochemical
Sequence of glucose dehydrogenase (GlucDH, wild-type) (P12310 whole entry): as above
Procedure: (§1) carbaNAD (FIG. 1A) or NAD were added to the glucose-specific GlucDH. These formulations were each applied to Pokalon foils (Lonza) and, after drying, stored under warm and humid conditions (32° C., 85% relative air humidity). Subsequently, the reaction kinetics and the function curve were determined at regular intervals. In parallel at each of the measurement times a cNAD/NAD analysis and a determination of the residual activity of the enzyme were carried out.
The result of the determination of residual activity of the active enzyme GlucDH after 5 weeks at 32° C. and 85% relative air humidity (FIG. 7A) is completely surprising. The enzyme stabilized with NAD now only has an extremely low enzyme activity (0.5%), whereas the enzyme stabilized with cNAD still has a residual activity of 70% (in each case compared to the samples stored in a refrigerator (KS) with desiccant (TM)). After 24 weeks at 32° C. and 85% relative air humidity (FIG. 7B) the residual activity of the enzyme when stabilized with cNAD is still about 25%.

[5] = target: T2, glucose dehydrogenase (GlucDH) (Bacillus subtilis, UniProt P12310); test: Reaction kinetics, function curve and dry blank value of GlucDH/coenzyme formulations after warm, humid storage; format: biochemical
T2 sequence (P12310 whole entry): as above
Procedure: as §1
However, a significant difference in the kinetics curves can be seen after 5 weeks.
There is also a considerable difference in the blank values (dry blank value before application of a blood sample) as shown in FIG. 3.
The different stability of glucose dehydrogenase in the presence of NAD or cNAD is also evident from a comparison of FIGS. 4 and 5. […] In this connection it is clear that the function of the enzyme is only slightly changed at high glucose concentrations over the entire period and approximately corresponds after 24 weeks to the value obtained after 5 weeks.

[6] = target: T2, glucose dehydrogenase (GlucDH); test: Stability of glucose dehydrogenase with coenzyme in a liquid phase at 50° C.; format: biochemical; conditions: 10 mg/ml GlucDH, 12 mg/ml coenzyme, pH 8.5
Procedure: FIGS. 9A and 9B are graphical illustrations of the stability of glucose dehydrogenase in the presence of NAD or cNAD in a liquid phase at 50° C. for a period of 4 days (FIG. 9A) or 14 days (FIG. 9B) with test conditions of 10 mg/ml GlucDH; 12 mg/ml NAD or cNAD; buffer: 0.1 M Tris, 1.2 M NaCl, pH 8.5; temperature 50° C.
After 95 hours at 50° C. the residual activity of glucose dehydrogenase in the presence of the native coenzyme NAD is […], whereas the residual activity of GlucDH in the presence of the artificial coenzyme cNAD is 75% (FIG. 9A). After 336 hours storage at 50° C. the residual activity of the enzyme stabilized with NAD is now only about 1%; a residual activity of still about 70% is observed for the enzyme stored in the presence of cNAD. The corresponding SDS gels also show a change in the GlucDH bands in the presence of the native coenzyme NAD: new bands are seen at higher molar masses and there is a shift in the 30 kDa band.

diaphorase [7] = test: Enzyme activity in test strips stored up to 18 weeks (Table 7); format: biochemical
Procedure: In order to evaluate the stabilization of glucose dehydrogenase and diaphorase by carbaNAD, a number of test strips were prepared in analogy to Example 5.
The test strips were stored over a period of 18 weeks at temperatures of 5° C. (KS, refrigerator), 25° C. (RT), 30° C. (GT), 35° C. (DT) and 45° C. (HT), and the enzyme activity in the test strips was determined at the start of storage (0 weeks), after 6 weeks, after 9 weeks, after 12 weeks and after 18 weeks. The results are shown in Table 6 (glucose dehydrogenase) and in Table 7 (diaphorase).

NC(=O)c1ccc[n+]([C@@H]2C[C@H](COP(=O)([O-])OP(=O)(O)OC[C@H]3O[C@@H](n4cnc5c(N)ncnc54)[C@H](O)[C@@H]3O)[C@@H](O)[C@H]2O)c1 [carbaNAD]
residual activity of diaphorase compared to formulation containing NAD [1]: considerably increased residual activity
TM [2]: 58.5 °C
ΔHcal [2]: 84 kcal/mol
residual activity of diaphorase compared to formulation containing NAD (diaphorase [3]): considerably increased residual activity
residual activity of GlucDH ([4]; 5 weeks at 32° C. and 85% relative air humidity, compared to samples stored in refrigerator with desiccant): 70%
residual activity of GlucDH ([4]; 24 weeks at 32° C. and 85% relative air humidity): about 25%
function curve of GlucDH ([5]; after 5 weeks at 32° C. and 85% air humidity): still lies within the set of curves of the previous measurements
kinetics curves of GlucDH ([5]; after 5 weeks at 32° C. and 85% relative air humidity): remains virtually unchanged
dry blank value before application of a blood sample ([5]; up to 5 weeks at 32° C. and 85% air humidity): does not occur
residual activity of glucose dehydrogenase ([6]; 95 hours at 50° C.): 75%
residual activity of glucose dehydrogenase ([6]; 336 hours at 50° C.): about 70%
Enzyme activity, diaphorase (diaphorase [7]; 0 weeks (start of storage)): 4.6 U/cm^2
Enzyme activity, diaphorase (diaphorase [7]; DT (35° C.), 6 weeks): 3.4 U/cm^2
Enzyme activity, diaphorase (diaphorase [7]; DT (35° C.), 9 weeks): 4.4 U/cm^2
Enzyme activity, diaphorase (diaphorase [7]; DT (35° C.), 12 weeks): 4.0 U/cm^2
Enzyme activity, diaphorase (diaphorase [7]; DT (35° C.), 18 weeks): 5.3 U/cm^2
Enzyme activity, diaphorase (diaphorase [7]; GT (30° C.), 12 weeks): 4.3 U/cm^2
Enzyme activity, diaphorase (diaphorase [7]; GT (30° C.), 18 weeks): 6.2 U/cm^2
Enzyme activity, diaphorase (diaphorase [7]; HT (45° C.), 6 weeks): 3.9 U/cm^2
Enzyme activity, diaphorase (diaphorase [7]; HT (45° C.), 9 weeks): 3.8 U/cm^2
Enzyme activity, diaphorase (diaphorase [7]; KS (5° C.), 6 weeks): 4.4 U/cm^2
Enzyme activity, diaphorase (diaphorase [7]; KS (5° C.), 9 weeks): 5.2 U/cm^2
Enzyme activity, diaphorase (diaphorase [7]; KS (5° C.), 12 weeks): 4.8 U/cm^2
Enzyme activity, diaphorase (diaphorase [7]; KS (5° C.), 18 weeks): 7.0 U/cm^2
Enzyme activity, diaphorase (diaphorase [7]; RT (25° C.), 6 weeks): 4.5 U/cm^2
Enzyme activity, diaphorase (diaphorase [7]; RT (25° C.), 9 weeks): 5.1 U/cm^2
Enzyme activity, diaphorase (diaphorase [7]; RT (25° C.), 12 weeks): 4.6 U/cm^2
Enzyme activity, diaphorase (diaphorase [7]; RT (25° C.), 18 weeks): 6.7 U/cm^2
